Test results: US20220298107A1, “SUBSTITUTED UREA DIHYDROOROTATE DEHYDROGENASE INHIBITORS” (Janssen Biotech, Inc., priority 2019, published 2022)

What was measured:
[1] = target: human DHODH (Homo sapiens, UniProt Q02127); assay: biochemical
Procedure: To detect DHODH enzyme activities, dichloroindophenol (DCIP) is added as the final electron acceptor in the assay. DCIP can accept electrons from the reduced coenzyme Q generated in the assay, or from dihydroorotate (DHO) via flavin mononucleotide (FMN) by binding presumably to the ubiquinone pocket. […] The assay buffer contained […], pH 7.5, 150 mM NaCl, 0.5 mM EDTA, and 0.1% Triton X-100 in MilliQ water. Substrate consisting of 20 mM DHO, 5 mM CoQ6, and 1 mM DCIP in assay buffer, initiates the reaction. […] Absorbance measurements were obtained using the BMG Phera Star plate-reading spectrophotomer. Purified human DHODH was purchased from Proteros (cat. No. PR-0044). Chemicals were purchased from Sigma-Aldrich, Teknova, and Avanti Polar Lipids. Liquid handling was performed using Labcyte Echo and Formulatrix Tempest.

[2] = system: MOLM-13 cells; assay: MOLM-13 Cellular Assay; type: cell-based; details: Homo sapiens, MOLM-13, 72 h, read-out: MOLM-13 Cellular Assay EC50 (nM)
Procedure: MOLM-13 cells were obtained from DSMZ and were maintained in RPMI 1640+Glutamax+25 mM HEPES (Invitrogen, catalog number 72400) supplemented with 10% heat inactivated fetal bovine serum (FBS; Invitrogen, catalog number 16140). The day prior to assay set-up, cells were pelleted, resuspended in fresh media, counted, and cells were plated at 0.4×10^6 cell/mL in a T150 flask. On the day of the assay, cells were pelleted, resuspend in fresh media, counted and seeded at 5,000 cells/well in white opaque 96-well tissue culture treated microplates (Perkin Elmer, catalog number 6005680). Cells were exposed to different concentrations of test compounds at 37° C., 5% CO2 for 72 hours immediately after seeding. Cell viability was acquired on a Perkin Elmer Envision 2104 multilabel reader using the CellTiter-Glo assay (Promega) according to the manufacturer's instructions.

human DHODH, sequence (Q02127 whole entry): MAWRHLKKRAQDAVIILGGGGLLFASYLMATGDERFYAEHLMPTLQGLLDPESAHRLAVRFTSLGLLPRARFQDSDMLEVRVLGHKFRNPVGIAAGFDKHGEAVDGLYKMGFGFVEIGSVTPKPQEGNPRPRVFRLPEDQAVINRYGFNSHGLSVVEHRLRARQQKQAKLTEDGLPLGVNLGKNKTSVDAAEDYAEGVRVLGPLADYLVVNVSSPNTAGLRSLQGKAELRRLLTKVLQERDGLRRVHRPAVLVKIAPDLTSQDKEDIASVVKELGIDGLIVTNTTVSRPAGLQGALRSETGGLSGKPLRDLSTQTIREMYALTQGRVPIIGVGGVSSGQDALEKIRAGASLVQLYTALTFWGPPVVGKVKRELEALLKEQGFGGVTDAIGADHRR

Row | SMILES | EC50 [1] | EC50 [2]
1 | C[C@H](Oc1cc(NC(=O)N2CCCCC2)c(F)cc1C(=O)Nc1c(F)cccc1Cl)C(F)(F)F [Example 2, (S)-N-(4-((2-Chloro-6-fluorophenyl)carbamoyl)-2-fluoro-5-((1,1,1-trifluoropropan-2-yl)oxy)phenyl)piperidine-1-carboxamide] | 0.02 µM | 12 nM
2 | CCN(CCO)C(=O)Nc1cc(O[C@@H](C)C(F)(F)F)c(C(=O)Nc2c(F)cccc2Cl)cc1F [Example 3, (S)-N-(2-Chloro-6-fluorophenyl)-4-(3-ethyl-3-(2-hydroxyethyl)ureido)-5-fluoro-2-((1,1,1-trifluoropropan-2-yl)oxy)benzamide] | – | 1.2 nM
3 | CCN(C(=O)Nc1cc(O[C@@H](C)C(F)(F)F)c(C(=O)Nc2c(F)cccc2Cl)cc1F)C(C)C [Example 4, (S)-N-(2-Chloro-6-fluorophenyl)-4-(3-ethyl-3-isopropylureido)-5-fluoro-2-((1,1,1-trifluoropropan-2-yl)oxy)benzamide] | 0.0073 µM | 2.1 nM
4 | CCN(CCOC)C(=O)Nc1cc(O[C@@H](C)C(F)(F)F)c(C(=O)Nc2c(F)cccc2Cl)cc1F [Example 6, (S)-N-(2-Chloro-6-fluorophenyl)-4-(3-ethyl-3-(2-methoxyethyl)ureido)-5-fluoro-2-((1,1,1-trifluoropropan-2-yl)oxy)benzamide] | 0.0036 µM | 1.2 nM
5 | CCN(CC(F)F)C(=O)Nc1cc(O[C@@H](C)C(F)(F)F)c(C(=O)Nc2c(F)cccc2Cl)cc1F [Example 7, (S)-N-(2-chloro-6-fluorophenyl)-4-(3-(2,2-difluoroethyl)-3-ethylureido)-5-fluoro-2-((1,1,1-trifluoropropan-2-yl)oxy)benzamide] | – | 1.9 nM
6 | CC(C)NC(=O)Nc1cc(O[C@@H](C)C(F)(F)F)c(C(=O)Nc2c(F)cccc2Cl)cc1F [Example 9, (S)-N-(2-Chloro-6-fluorophenyl)-5-fluoro-4-(3-isopropylureido)-2-((1,1,1-trifluoropropan-2-yl)oxy)benzamide] | 0.49 µM | 89 nM
7 | C[C@H](Oc1cc(NC(=O)N2CCC(CO)C2)c(F)cc1C(=O)Nc1c(F)cccc1Cl)C(F)(F)F (stereo partly drawn) [Example 13, N-(4-((2-Chloro-6-fluorophenyl)carbamoyl)-2-fluoro-5-(((S)-1,1,1-trifluoropropan-2-yl)oxy)phenyl)-3-(hydroxymethyl)pyrrolidine-1-carboxamide] | 0.95 µM | 220 nM
8 | CCCN(C)C(=O)Nc1cc(O[C@@H](C)C(F)(F)F)c(C(=O)Nc2c(F)cccc2Cl)cc1F [Example 14, (S)-N-(2-Chloro-6-fluorophenyl)-5-fluoro-4-(3-methyl-3-propylureido)-2-((1,1,1-trifluoropropan-2-yl)oxy)benzamide] | 0.0079 µM | –
9 | CCCN(CC)C(=O)Nc1cc(O[C@@H](C)C(F)(F)F)c(C(=O)Nc2c(F)cccc2Cl)cc1F [Example 15, (S)-N-(2-Chloro-6-fluorophenyl)-4-(3-ethyl-3-propylureido)-5-fluoro-2-((1,1,1-trifluoropropan-2-yl)oxy)benzamide] | 0.02 µM | –
10 | C[C@H](Oc1cc(NC(=O)N(C)CCF)c(F)cc1C(=O)Nc1c(F)cccc1Cl)C(F)(F)F [Example 16, (S)-N-(2-chloro-6-fluorophenyl)-5-fluoro-4-(3-(2-fluoroethyl)-3-methylureido)-2-((1,1,1-trifluoropropan-2-yl)oxy)benzamide] | 0.0047 µM | –
11 | C[C@H](Oc1cc(NC(=O)N(C)CCC#N)c(F)cc1C(=O)Nc1c(F)cccc1Cl)C(F)(F)F [Example 17, (S)-N-(2-Chloro-6-fluorophenyl)-4-(3-(2-cyanoethyl)-3-methylureido)-5-fluoro-2-((1,1,1-trifluoropropan-2-yl)oxy)benzamide] | 0.2 µM | –
12 | C[C@H](Oc1cc(NC(=O)N(C)CCO)c(F)cc1C(=O)Nc1c(F)cccc1Cl)C(F)(F)F [Example 18, (S)-N-(2-Chloro-6-fluorophenyl)-5-fluoro-4-(3-(2-hydroxyethyl)-3-methylureido)-2-((1,1,1-trifluoropropan-2-yl)oxy)benzamide] | 0.0026 µM | 1.5 nM
13 | C[C@H](Oc1cc(NC(=O)N2CCC2)c(F)cc1C(=O)Nc1c(F)cccc1Cl)C(F)(F)F [Example 20, (S)-N-(4-((2-Chloro-6-fluorophenyl)carbamoyl)-2-fluoro-5-((1,1,1-trifluoropropan-2-yl)oxy)phenyl)azetidine-1-carboxamide] | 0.0028 µM | –
14 | C[C@H](Oc1cc(NC(=O)N2CC(F)C2)c(F)cc1C(=O)Nc1c(F)cccc1Cl)C(F)(F)F [Example 22, (S)-N-(4-((2-Chloro-6-fluorophenyl)carbamoyl)-2-fluoro-5-((1,1,1-trifluoropropan-2-yl)oxy)phenyl)-3-fluoroazetidine-1-carboxamide] | 0.0072 µM | –
15 | C[C@H](Oc1cc(NC(=O)N2CC(O)C2)c(F)cc1C(=O)Nc1c(F)cccc1Cl)C(F)(F)F [Example 23, (S)-N-(4-((2-Chloro-6-fluorophenyl)carbamoyl)-2-fluoro-5-((1,1,1-trifluoropropan-2-yl)oxy)phenyl)-3-hydroxyazetidine-1-carboxamide] | 0.54 µM | 270 nM
16 | C[C@H](Oc1cc(NC(=O)N2CC(CF)C2)c(F)cc1C(=O)Nc1c(F)cccc1Cl)C(F)(F)F [Example 25, (S)-N-(4-((2-Chloro-6-fluorophenyl)carbamoyl)-2-fluoro-5-((1,1,1-trifluoropropan-2-yl)oxy)phenyl)-3-(fluoromethyl)azetidine-1-carboxamide] | 0.21 µM | 110 nM
17 | C[C@H](Oc1cc(NC(=O)N(C)CC#N)c(F)cc1C(=O)Nc1c(F)cccc1Cl)C(F)(F)F [Example 26, (S)-N-(2-Chloro-6-fluorophenyl)-4-(3-(cyanomethyl)-3-methylureido)-5-fluoro-2-((1,1,1-trifluoropropan-2-yl)oxy)benzamide] | 7.97 µM | 170 nM
18 | COC1CCN(C(=O)Nc2cc(O[C@@H](C)C(F)(F)F)c(C(=O)Nc3c(F)cccc3Cl)cc2F)C1 (stereo partly drawn) [Example 29, N-(4-((2-Chloro-6-fluorophenyl)carbamoyl)-2-fluoro-5-(((S)-1,1,1-trifluoropropan-2-yl)oxy)phenyl)-3-methoxypyrrolidine-1-carboxamide] | 0.085 µM | 40 nM
19 | C[C@H](Oc1cc(NC(=O)N2CCC(O)C2)c(F)cc1C(=O)Nc1c(F)cccc1Cl)C(F)(F)F (stereo partly drawn) [Example 30, N-(4-((2-Chloro-6-fluorophenyl)carbamoyl)-2-fluoro-5-(((S)-1,1,1-trifluoropropan-2-yl)oxy)phenyl)-3-hydroxypyrrolidine-1-carboxamide] | 0.12 µM | 57 nM
20 | C[C@H](Oc1cc(NC(=O)N2CCC(F)C2)c(F)cc1C(=O)Nc1c(F)cccc1Cl)C(F)(F)F (stereo partly drawn) [Example 32, N-(4-((2-Chloro-6-fluorophenyl)carbamoyl)-2-fluoro-5-(((S)-1,1,1-trifluoropropan-2-yl)oxy)phenyl)-3-fluoropyrrolidine-1-carboxamide] | 0.013 µM | 5.8 nM
21 | Cc1ccnc(Cl)c1NC(=O)c1cc(F)c(NC(=O)N2CCC[C@@H]2CO)cc1O[C@@H](C)C(F)(F)F [Example 36, (R)-N-(4-((2-Chloro-4-methylpyridin-3-yl)carbamoyl)-2-fluoro-5-(((S)-1,1,1-trifluoropropan-2-yl)oxy)phenyl)-2-(hydroxymethyl)pyrrolidine-1-carboxamide] | 0.0026 µM | 6.6 nM
22 | Cc1n[nH]c(Cl)c1NC(=O)c1cc(F)c(NC(=O)N2CCC[C@@H]2CO)cc1O[C@@H](C)C(F)(F)F [Example 37, (R)-N-(4-((5-Chloro-3-methyl-1H-pyrazol-4-yl)carbamoyl)-2-fluoro-5-(((S)-1,1,1-trifluoropropan-2-yl)oxy)phenyl)-2-(hydroxymethyl)pyrrolidine-1-carboxamide] | 0.0007 µM | 11 nM
23 | COc1nccc(C)c1NC(=O)c1cc(F)c(NC(=O)N2CCC[C@@H]2CO)cc1O[C@@H](C)C(F)(F)F [Example 38, (R)-N-(2-Fluoro-4-((2-methoxy-4-methylpyridin-3-yl)carbamoyl)-5-(((S)-1,1,1-trifluoropropan-2-yl)oxy)phenyl)-2-(hydroxymethyl)pyrrolidine-1-carboxamide] | 0.00017 µM | 16 nM
24 | COc1ncc(C)c(NC(=O)c2cc(F)c(NC(=O)N3CCC[C@@H]3CO)cc2O[C@@H](C)C(F)(F)F)c1Cl [Example 39, (R)-N-(4-((3-Chloro-2-methoxy-5-methylpyridin-4-yl)carbamoyl)-2-fluoro-5-(((S)-1,1,1-trifluoropropan-2-yl)oxy)phenyl)-2-(hydroxymethyl)pyrrolidine-1-carboxamide] | 0.0026 µM | 3.5 nM
25 | COc1ncc(C)c(NC(=O)c2cc(F)c(NC(=O)N3CCC[C@@H]3CO)cc2O[C@@H](C)C(F)(F)F)c1C [Example 40, (R)-N-(2-Fluoro-4-((2-methoxy-3,5-dimethylpyridin-4-yl)carbamoyl)-5-(((S)-1,1,1-trifluoropropan-2-yl)oxy)phenyl)-2-(hydroxymethyl)pyrrolidine-1-carboxamide] | 0.0036 µM | 25 nM
